The results in this text go back to patent publication US20250002477A1, “BENZIMIDAZOLE COMPOUND OR SALT THEREOF, CANINE FILARIASIS CONTROL AGENT CONTAINING SAME, AND METHOD OF USE THEREOF” (NIHON NOHYAKU CO., LTD., priority 2021, published 2025).

Molecules are shown by their SMILES.

This test deals with L-1 stage larvae of canine filariae (Dirofilaria immitis). In words: Impact evaluation test on larvae motility of canine filariae. The conditions noted are these: final concentration of 50 ppm, 3 days, corrected for DMSO solution alone.

For the molecule `Clc1ccc(CCc2cn(-c3nc4ccccc4[nH]3)cn2)c(Cl)c1` [Compound 1-1, 2-(4-(2-(2,4-dichlorophenyl)ethyl)-1H-imidazol-1-yl)benzimidazole], the “activity level (corrected motility impediment rate)” value was “A (the corrected motility impediment rate is 100%)”.
